Data: patent US20260078108A1, “SOLID FORMS OF A ROCK INHIBITOR” (REDX PHARMA PLC, priority 2022, published 2026)
Where a name gives a salt, the structure may show the parent alone.

Columns and labels:
[1] = 7-day stability testing of solid forms (HPLC purity, XRPD); assay type: physicochemical; details: for Purity (area %) / Decrease in purity versus Day 0: listed as HCI salt Form II
Procedure: About 10 mg of freebase Form I, HCl salt Form II, Succinate Form I and received HCl salt Form I were placed at 60° C./capped and 40° C./75% RH (open), respectively. Samples were prepared in duplicate for each condition. At day 0 and day 7, the samples were analyzed by HPLC and XRPD to check the purity and crystal form, respectively.

[2] = Longer term stability of HCl salt form II (HPLC, XRPD; 1 and 3 months); assay type: physicochemical
Procedure: Samples were prepared in duplicate for each condition. At day 0 and at 1 month, and 3 months, the samples were analyzed by HPLC and XRPD to check the purity and crystal form, respectively.

[3] = Solubility testing in water, SGF, FaSSIF, FeSSIF at 37° C.; assay type: physicochemical; details: for Solubility: 37° C.
Procedure: About 15 mg of sample was weighed into each sample vial and then 3.0 mL of water, simulated gastric fluid (SGF), Fasted State Simulated Intestinal Fluid (FaSSIF) or Fed State Simulated Intestinal Fluid (FeSSIF) media was added. Samples were prepared in triplicate for each media. The suspensions were kept shaking at 37° C. for up to 24 h. At 0.5, 2 and 24 h, suspensions were filtered and the filtrate was analyzed by HPLC.

[4] = system: animal models of inflammatory bowel disease; details: multiple animal models of inflammatory bowel disease; preclinical data, background; cited from earlier work
[5] = 25° C.±2° C., 60% RH±5% RH, T1 month
[6] = 25° C.±2° C., 60% RH±5% RH, T3 month
[7] = 40° C.±2° C., 74% RH±5% RH, T1 month
[8] = 40° C.±2° C., 74% RH±5% RH, T3 month

With NCc1ccc(C(=O)Nc2ccncc2F)cc1-c1cccc(C(=O)Nc2ccc(SC[C@H]3CCOC3=O)cc2)c1 [HCl salt Form II] the “Purity (area %)” value ([1]; Day 0, HPLC) was 98.65 area %, the “XRPD (crystal form)” value ([1]; Day 7, 40° C./75% RH (open)) was “No change” and the “Purity (area %)” value ([1]; Day 7, 40° C./75% RH (open), HPLC) was 98.48 area %. For the same compound, the “Decrease in purity versus Day 0” value ([1]; Day 7, 40° C./75% RH (open)) was 0.2 area %, the “XRPD (crystal form)” value ([1]; Day 7, 60° C./capped) was “No change” and the “Purity (area %)” value ([1]; Day 7, 60° C./capped, HPLC) was 98.45 area %. The “Decrease in purity versus Day 0” value ([1]; Day 7, 60° C./capped) was 0.2 area %, the “Longer term stability (in words)” value ([2]; 25° C./60% RH and accelerated 40° C./75% RH) was “stable for up to 3 months even under accelerated conditions” and the “Assay by HPLC (water and solvent free)(area)” value ([2]; 25° C.±2° C., 60% RH±5% RH, T0) was 101.6%. For the same compound, the “Polymorphism by XRPD” value ([2]; 25° C.±2° C., 60% RH±5% RH, T0) was “Form II”, the “Total impurities by HPLC” value ([2]; 25° C.±2° C., 60% RH±5% RH, T0) was “impurities: 1.0%” and the “Water Content” value ([2]; 25° C.±2° C., 60% RH±5% RH, T0) was 1.8%. The “Assay by HPLC (water and solvent free)(area)” value [2, 5] was 101.4%, the “Polymorphism by XRPD” value [2, 5] was “Form II” and the “Total impurities by HPLC” value [2, 5] was “impurities: 1.1%”. For the same compound, the “Water Content” value [2, 5] was 1.6%, the “Assay by HPLC (water and solvent free)(area)” value [2, 6] was 101.2% and the “Polymorphism by XRPD” value [2, 6] was “Form II”. For the same compound, the “Total impurities by HPLC” value [2, 6] was “impurities: 1.0%”, the “Water Content” value [2, 6] was 1.4% and the “Assay by HPLC (water and solvent free)(area)” value ([2]; 40° C.±2° C., 74% RH±5% RH, T0) was 101.6%. For the same compound, the “Polymorphism by XRPD” value ([2]; 40° C.±2° C., 74% RH±5% RH, T0) was “Form II”, the “Total impurities by HPLC” value ([2]; 40° C.±2° C., 74% RH±5% RH, T0) was “impurities: 1.0%” and the “Water Content” value ([2]; 40° C.±2° C., 74% RH±5% RH, T0) was 1.8%. The “Assay by HPLC (water and solvent free)(area)” value [2, 7] was 101.4%, the “Polymorphism by XRPD” value [2, 7] was “Form II” and the “Total impurities by HPLC” value [2, 7] was “impurities: 1.1%”. The “Water Content” value [2, 7] was 1.5%, the “Assay by HPLC (water and solvent free)(area)” value [2, 8] was 101.4% and the “Polymorphism by XRPD” value [2, 8] was “Form II”. For the same compound, the “Total impurities by HPLC” value [2, 8] was “impurities: 1.1%”, the “Water Content” value [2, 8] was 1.5% and the “Solubility” value ([3]; FaSSIF (pH of media 6.5), 0.5 h) was 0.019 mg/mL. The “Solubility” value ([3]; FaSSIF (pH of media 6.5), 2 h) was 0.023 mg/mL, the “Solubility” value ([3]; FaSSIF (pH of media 6.5), 24 h) was 0.006 mg/mL and the “Solubility” value ([3]; FeSSIF (pH of media 5.0), 0.5 h) was 0.064 mg/mL. For the same compound, the “Solubility” value ([3]; FeSSIF (pH of media 5.0), 2 h) was 0.069 mg/mL, the solubility at 24 h ([3]; Fed State Simulated Intestinal Fluid (FeSSIF), 37 °C, pH 5, fessif, thermodynamic from solid, FeSSIF (pH of media 5.0), 24 h) was 57 µg/mL and the “Solubility” value ([3]; SGF (pH of media 1.2), 0.5 h) was 2.550 mg/mL. For the same compound, the “Solubility” value ([3]; SGF (pH of media 1.2), 2 h) was 2.591 mg/mL, the “Solubility” value ([3]; SGF (pH of media 1.2), 24 h) was 3.372 mg/mL and the “Solubility in SGF (in words)” value ([3]; SGF, comparison with HCl Salt Form 1) was “more soluble in SGF than HCl Salt Form 1”. For the same compound, the “Solubility” value ([3]; Water (pH of media 7.9), 0.5 h) was 0.716 mg/mL, the “Solubility” value ([3]; Water (pH of media 7.9), 2 h) was 0.696 mg/mL and the “Solubility” value ([3]; Water (pH of media 7.9), 24 h) was 0.919 mg/mL. The pH ([3]; pH of sample in FaSSIF (pH of media 6.5), 0.5 h) was 6.4, the pH ([3]; pH of sample in FaSSIF (pH of media 6.5), 2 h) was 6.4 and the pH ([3]; pH of sample in FaSSIF (pH of media 6.5), 24 h) was 6.4. The pH ([3]; pH of sample in FeSSIF (pH of media 5.0), 0.5 h) was 4.9, the pH ([3]; pH of sample in FeSSIF (pH of media 5.0), 2 h) was 4.9 and the pH ([3]; pH of sample in FeSSIF (pH of media 5.0), 24 h) was 4.9. For the same compound, the pH ([3]; pH of sample in SGF (pH of media 1.2), 0.5 h) was 1.2, the pH ([3]; pH of sample in SGF (pH of media 1.2), 2 h) was 1.4 and the pH ([3]; pH of sample in SGF (pH of media 1.2), 24 h) was 1.4. For the same compound, the pH ([3]; pH of sample in Water (pH of media 7.9), 0.5 h) was 4.9, the pH ([3]; pH of sample in Water (pH of media 7.9), 2 h) was 4.8 and the pH ([3]; pH of sample in Water (pH of media 7.9), 24 h) was 6.0.

For NCc1ccc(C(=O)Nc2ccncc2F)cc1-c1cccc(C(=O)Nc2ccc(SCC3CCOC3=O)cc2)c1 (centres unmarked) [Compound A, 4-(aminomethyl)-N-(3-fluoropyridin-4-yl)-3-{3-[(4-{[(2-oxooxolan-3-yl)methyl]sulfanyl}phenyl)carbamoyl]phenyl}benzamide], the “Stability (in words)” value ([1]; chemical stability of solid forms, comparison) is given as “low chemical stability” and the Anti-fibrotic therapeutic effects [4] is given as “strong anti-fibrotic therapeutic effects”.
